# From article PMC8989868, “Structural mechanism of TRPM7 channel regulation by intracellular magnesium” (Cellular and Molecular Life Sciences: CMLS, 2022)
# Target: T1, mouse TRPM7 (Mus musculus, UniProt Q923J1)
# T1 construct: full-length channel-kinase, untagged, in bicistronic pIRES2-EGFP, transiently expressed in HEK293T cells; homotetramer
# Assay: whole-cell patch clamp, current at +[…] mV
# Format: cell-based
# Details: external NS8593, inhibitor; Mg2+-free intracellular solution; pH 7.2
# T1 sequence (Q923J1 whole entry): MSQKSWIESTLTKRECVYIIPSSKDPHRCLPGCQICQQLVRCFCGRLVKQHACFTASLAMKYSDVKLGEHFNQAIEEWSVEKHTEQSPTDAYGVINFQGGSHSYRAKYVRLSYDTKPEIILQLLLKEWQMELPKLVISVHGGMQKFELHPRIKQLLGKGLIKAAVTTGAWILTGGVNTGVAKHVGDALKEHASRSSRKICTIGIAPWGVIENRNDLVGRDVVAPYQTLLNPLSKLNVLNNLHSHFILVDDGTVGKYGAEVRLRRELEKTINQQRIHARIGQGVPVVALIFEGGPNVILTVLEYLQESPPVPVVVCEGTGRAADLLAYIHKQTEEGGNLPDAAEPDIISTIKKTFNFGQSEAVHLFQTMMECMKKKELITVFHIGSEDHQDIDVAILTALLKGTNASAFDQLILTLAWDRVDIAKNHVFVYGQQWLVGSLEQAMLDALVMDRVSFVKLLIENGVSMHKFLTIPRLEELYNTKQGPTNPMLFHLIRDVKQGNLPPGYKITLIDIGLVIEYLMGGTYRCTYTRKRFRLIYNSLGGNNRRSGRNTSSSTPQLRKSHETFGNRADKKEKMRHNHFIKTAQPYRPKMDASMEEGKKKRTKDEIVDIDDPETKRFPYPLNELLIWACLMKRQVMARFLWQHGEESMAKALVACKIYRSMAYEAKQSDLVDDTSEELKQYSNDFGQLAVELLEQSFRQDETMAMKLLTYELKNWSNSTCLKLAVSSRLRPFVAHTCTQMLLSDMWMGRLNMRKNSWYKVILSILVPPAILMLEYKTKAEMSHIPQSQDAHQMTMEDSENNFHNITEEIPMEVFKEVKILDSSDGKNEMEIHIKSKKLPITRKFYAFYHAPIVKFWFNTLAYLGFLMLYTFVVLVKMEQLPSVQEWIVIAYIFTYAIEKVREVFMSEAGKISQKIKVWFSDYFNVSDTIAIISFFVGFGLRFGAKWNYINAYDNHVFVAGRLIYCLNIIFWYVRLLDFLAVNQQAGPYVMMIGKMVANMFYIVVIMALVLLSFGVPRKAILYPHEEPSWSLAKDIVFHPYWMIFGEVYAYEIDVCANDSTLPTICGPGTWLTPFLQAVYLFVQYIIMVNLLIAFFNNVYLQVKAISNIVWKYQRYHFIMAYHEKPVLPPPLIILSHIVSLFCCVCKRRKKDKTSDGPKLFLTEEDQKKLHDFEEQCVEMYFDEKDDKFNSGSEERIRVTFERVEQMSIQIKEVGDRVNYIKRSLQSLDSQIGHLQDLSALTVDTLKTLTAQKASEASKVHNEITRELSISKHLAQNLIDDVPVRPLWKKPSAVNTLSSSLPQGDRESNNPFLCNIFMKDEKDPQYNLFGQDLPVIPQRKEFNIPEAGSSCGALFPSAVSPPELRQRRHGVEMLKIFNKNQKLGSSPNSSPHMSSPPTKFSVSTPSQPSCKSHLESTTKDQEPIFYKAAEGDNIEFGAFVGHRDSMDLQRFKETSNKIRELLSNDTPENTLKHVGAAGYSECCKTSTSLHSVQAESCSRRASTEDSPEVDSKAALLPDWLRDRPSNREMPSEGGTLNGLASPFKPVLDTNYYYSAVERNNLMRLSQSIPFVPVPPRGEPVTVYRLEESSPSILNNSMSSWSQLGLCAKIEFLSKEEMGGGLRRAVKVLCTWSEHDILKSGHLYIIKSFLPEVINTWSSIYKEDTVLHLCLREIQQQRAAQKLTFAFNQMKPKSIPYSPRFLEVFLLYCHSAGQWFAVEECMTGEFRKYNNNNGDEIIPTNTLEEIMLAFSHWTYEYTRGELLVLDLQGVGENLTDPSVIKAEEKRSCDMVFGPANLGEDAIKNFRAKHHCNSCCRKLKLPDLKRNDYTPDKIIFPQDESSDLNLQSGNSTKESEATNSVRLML
smiles,measurement,value
c1ccc2c(c1)CCC[C@H]2Nc1nc2ccccc2[nH]1 [NS8593],current inhibition at 10 μM,NS8593 caused a rapid inhibition of WT and N1097Q currents
